# Laboratory results published in paper PMC9898036, “VIP152 is a selective CDK9 inhibitor with pre-clinical in vitro and in vivo efficacy in chronic lymphocytic leukemia” (Leukemia, 2022).
# Key:
# [1] = tested on: TP53 R175H and R248Q mutated HG-3 cell lines; assay: Annexin V/propidium iodide flow cytometry; type: cell-based, human; conditions: 24, 48, and 72 h
# Adrenergic α1A = Adrenergic α1A (Rattus norvegicus, UniProt P43140); assay: Eurofins Diversity Panel; type: binding; conditions: Conc. 10 μM
# Adrenergic α1D = Adrenergic α1D (Homo sapiens, UniProt P25100); assay: Eurofins Diversity Panel; type: binding; conditions: hum, Conc. 10 μM
# Sequence of Adrenergic α1D (P25100 whole entry): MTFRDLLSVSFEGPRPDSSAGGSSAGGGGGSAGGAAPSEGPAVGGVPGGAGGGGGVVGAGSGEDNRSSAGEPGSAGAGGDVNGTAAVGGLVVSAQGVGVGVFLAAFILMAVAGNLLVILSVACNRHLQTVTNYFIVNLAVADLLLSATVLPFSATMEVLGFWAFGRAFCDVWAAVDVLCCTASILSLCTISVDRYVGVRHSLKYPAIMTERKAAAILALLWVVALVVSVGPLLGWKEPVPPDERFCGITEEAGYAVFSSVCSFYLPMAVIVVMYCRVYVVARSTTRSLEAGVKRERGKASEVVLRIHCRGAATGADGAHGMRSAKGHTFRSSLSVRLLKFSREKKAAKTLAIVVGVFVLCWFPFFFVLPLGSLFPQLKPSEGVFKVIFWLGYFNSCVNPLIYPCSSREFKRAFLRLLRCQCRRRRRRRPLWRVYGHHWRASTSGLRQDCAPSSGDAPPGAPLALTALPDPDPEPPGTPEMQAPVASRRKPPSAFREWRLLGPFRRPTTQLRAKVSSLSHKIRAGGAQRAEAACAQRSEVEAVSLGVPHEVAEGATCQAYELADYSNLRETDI
# Adrenergic β2 = Adrenergic β2 (Homo sapiens, UniProt P07550); assay: Eurofins Diversity Panel; type: binding; conditions: hum, Conc. 10 μM
# Melatonin MT1 = Melatonin MT1 (Homo sapiens, UniProt P48039); assay: Eurofins Diversity Panel; type: binding; conditions: hum, Conc. 10 μM
# Muscarinic M1 = Muscarinic M1 (Homo sapiens, UniProt P11229); assay: Eurofins Diversity Panel; type: binding; conditions: hum, Conc. 10 μM
# Purinergic P2Y = assay: Eurofins Diversity Panel; type: binding; conditions: rat, Conc. 10 μM
# [2] = target: Transporter, Norepinephrine (NET) (Homo sapiens, UniProt P23975); assay: Eurofins Diversity Panel; type: binding; conditions: hum, Conc. 10 μM
# [3] = tested on: broad range of receptors, transporters, ion channels, and enzymes; assay: Eurofins Diversity Panel, whole panel (n = 138); type: binding; conditions: 10 µM, except imidazoline I2, Sigma σ1, adrenergic α2A, α2B, α2C
# PKNB(M.tuberculosis) = PKNB(M.tuberculosis) (Mycobacterium tuberculosis, UniProt P9WI81); assay: DiscoverX KINOMEscan kinase profiling: PKNB(M.tuberculosis); type: binding; conditions: PKNB(M.tuberculosis) (Entrez pknB); 100 nM; read-out: Percent Control
# [4] = target: RSK3(Kin.Dom.2-C-terminal) (Homo sapiens, UniProt Q15349); assay: KINOMEscan: RSK3(Kin.Dom.2-C-terminal); type: binding; conditions: 100 nM, read-out: Percent Control
# SGK = SGK (Homo sapiens, UniProt O00141); assay: KINOMEscan: SGK; type: binding; conditions: 100 nM, read-out: Percent Control
# Sequence of SGK (O00141 whole entry): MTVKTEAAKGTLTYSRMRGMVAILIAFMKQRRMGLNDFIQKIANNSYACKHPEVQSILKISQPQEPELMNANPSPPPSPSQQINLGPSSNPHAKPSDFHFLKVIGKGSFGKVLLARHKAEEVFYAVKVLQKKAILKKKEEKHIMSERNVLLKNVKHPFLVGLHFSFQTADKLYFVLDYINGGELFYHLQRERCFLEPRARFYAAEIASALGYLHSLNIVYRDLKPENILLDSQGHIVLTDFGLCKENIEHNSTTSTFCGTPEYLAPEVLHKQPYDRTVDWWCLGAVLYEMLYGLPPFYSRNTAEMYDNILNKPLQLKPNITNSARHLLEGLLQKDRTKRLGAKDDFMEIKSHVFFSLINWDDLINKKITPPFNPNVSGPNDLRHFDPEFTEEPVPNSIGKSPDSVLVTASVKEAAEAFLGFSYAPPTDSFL
# SGK3 = SGK3 (Homo sapiens, UniProt Q96BR1); assay: KINOMEscan: SGK3; type: binding; conditions: 100 nM, read-out: Percent Control
# TNK1 = TNK1 (Homo sapiens, UniProt Q13470); assay: KINOMEscan: TNK1; type: binding; conditions: 100 nM, read-out: Percent Control
# TNNI3K = TNNI3K (Homo sapiens, UniProt Q59H18); assay: KINOMEscan: TNNI3K; type: binding; conditions: 100 nM, read-out: Percent Control
# VPS34 = VPS34 (Homo sapiens, UniProt Q8NEB9); assay: KINOMEscan: VPS34; type: binding; conditions: 100 nM, read-out: Percent Control
# BTK = BTK (Homo sapiens, UniProt Q06187); assay: KINOMEscan: BTK; type: binding; conditions: 1000 nM, read-out: Percent Control
# CAMK2B = CAMK2B (Homo sapiens, UniProt Q13554); assay: KINOMEscan: CAMK2B; type: binding; conditions: 1000 nM, read-out: Percent Control
# CAMK2D = CAMK2D (Homo sapiens, UniProt Q13557); assay: KINOMEscan: CAMK2D; type: binding; conditions: 1000 nM, read-out: Percent Control
# CLK2 = CLK2 (Homo sapiens, UniProt P49760); assay: KINOMEscan: CLK2; type: binding; conditions: 1000 nM, read-out: Percent Control
# CSF1R-autoinhibited = CSF1R-autoinhibited (Homo sapiens, UniProt P07333); assay: KINOMEscan: CSF1R-autoinhibited; type: binding; conditions: 1000 nM, read-out: Percent Control
# DMPK = DMPK (Homo sapiens, UniProt Q09013); assay: KINOMEscan: DMPK; type: binding; conditions: 1000 nM, read-out: Percent Control
# Sequence of DMPK (Q09013 whole entry): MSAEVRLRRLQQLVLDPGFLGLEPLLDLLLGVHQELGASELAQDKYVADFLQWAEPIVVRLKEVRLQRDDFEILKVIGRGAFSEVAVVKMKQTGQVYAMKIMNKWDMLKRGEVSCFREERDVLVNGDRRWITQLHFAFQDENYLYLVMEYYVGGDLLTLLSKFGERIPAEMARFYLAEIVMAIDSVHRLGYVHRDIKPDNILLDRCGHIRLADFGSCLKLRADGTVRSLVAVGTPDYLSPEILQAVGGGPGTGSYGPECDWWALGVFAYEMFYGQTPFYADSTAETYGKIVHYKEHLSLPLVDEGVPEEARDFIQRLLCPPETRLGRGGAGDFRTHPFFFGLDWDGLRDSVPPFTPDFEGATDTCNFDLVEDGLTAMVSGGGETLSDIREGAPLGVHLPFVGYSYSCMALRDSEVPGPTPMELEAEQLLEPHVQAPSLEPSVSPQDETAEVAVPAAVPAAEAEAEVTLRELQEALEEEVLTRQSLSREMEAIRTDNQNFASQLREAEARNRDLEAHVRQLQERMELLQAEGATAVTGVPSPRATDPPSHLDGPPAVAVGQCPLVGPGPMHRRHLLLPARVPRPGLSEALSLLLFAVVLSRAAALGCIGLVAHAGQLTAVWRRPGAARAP
# EGFR = EGFR (Homo sapiens, UniProt P00533); assay: KINOMEscan: EGFR; type: binding; conditions: 1000 nM, read-out: Percent Control
# Sequence of EGFR (P00533 25-1210): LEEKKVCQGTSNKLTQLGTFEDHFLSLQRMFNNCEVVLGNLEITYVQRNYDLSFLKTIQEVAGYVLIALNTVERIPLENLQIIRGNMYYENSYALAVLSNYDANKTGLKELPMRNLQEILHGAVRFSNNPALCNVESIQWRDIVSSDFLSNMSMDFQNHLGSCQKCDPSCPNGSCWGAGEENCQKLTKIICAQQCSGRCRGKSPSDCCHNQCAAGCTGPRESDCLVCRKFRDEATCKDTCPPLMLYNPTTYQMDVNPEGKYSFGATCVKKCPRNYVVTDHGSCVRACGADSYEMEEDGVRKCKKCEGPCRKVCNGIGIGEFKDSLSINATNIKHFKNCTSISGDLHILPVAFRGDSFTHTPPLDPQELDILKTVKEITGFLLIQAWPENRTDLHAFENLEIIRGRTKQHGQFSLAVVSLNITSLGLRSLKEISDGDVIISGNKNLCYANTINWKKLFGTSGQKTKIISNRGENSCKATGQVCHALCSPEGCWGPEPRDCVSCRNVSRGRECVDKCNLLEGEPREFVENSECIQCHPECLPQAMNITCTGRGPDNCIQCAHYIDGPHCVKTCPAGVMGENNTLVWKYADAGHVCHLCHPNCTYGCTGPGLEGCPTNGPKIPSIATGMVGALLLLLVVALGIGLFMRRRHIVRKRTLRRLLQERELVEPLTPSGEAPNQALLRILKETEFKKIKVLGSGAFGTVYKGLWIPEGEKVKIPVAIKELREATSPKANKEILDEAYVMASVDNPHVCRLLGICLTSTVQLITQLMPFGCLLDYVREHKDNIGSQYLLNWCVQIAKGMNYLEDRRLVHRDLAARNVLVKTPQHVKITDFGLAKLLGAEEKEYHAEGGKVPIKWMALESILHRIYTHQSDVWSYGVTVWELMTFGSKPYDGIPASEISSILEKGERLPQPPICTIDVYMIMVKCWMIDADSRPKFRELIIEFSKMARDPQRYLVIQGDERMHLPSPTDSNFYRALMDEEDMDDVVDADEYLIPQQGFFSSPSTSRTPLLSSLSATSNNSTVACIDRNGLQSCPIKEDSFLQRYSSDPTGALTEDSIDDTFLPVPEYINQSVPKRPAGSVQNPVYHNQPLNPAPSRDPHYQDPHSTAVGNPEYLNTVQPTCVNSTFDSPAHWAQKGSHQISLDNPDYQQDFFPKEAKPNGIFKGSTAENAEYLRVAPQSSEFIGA
# EGFR(G719C) = EGFR(G719C) (Homo sapiens, UniProt P00533, G719C); assay: KINOMEscan: EGFR(G719C); type: binding; conditions: 1000 nM, read-out: Percent Control
# Sequence of EGFR(G719C) (P00533 25-1210 G719C): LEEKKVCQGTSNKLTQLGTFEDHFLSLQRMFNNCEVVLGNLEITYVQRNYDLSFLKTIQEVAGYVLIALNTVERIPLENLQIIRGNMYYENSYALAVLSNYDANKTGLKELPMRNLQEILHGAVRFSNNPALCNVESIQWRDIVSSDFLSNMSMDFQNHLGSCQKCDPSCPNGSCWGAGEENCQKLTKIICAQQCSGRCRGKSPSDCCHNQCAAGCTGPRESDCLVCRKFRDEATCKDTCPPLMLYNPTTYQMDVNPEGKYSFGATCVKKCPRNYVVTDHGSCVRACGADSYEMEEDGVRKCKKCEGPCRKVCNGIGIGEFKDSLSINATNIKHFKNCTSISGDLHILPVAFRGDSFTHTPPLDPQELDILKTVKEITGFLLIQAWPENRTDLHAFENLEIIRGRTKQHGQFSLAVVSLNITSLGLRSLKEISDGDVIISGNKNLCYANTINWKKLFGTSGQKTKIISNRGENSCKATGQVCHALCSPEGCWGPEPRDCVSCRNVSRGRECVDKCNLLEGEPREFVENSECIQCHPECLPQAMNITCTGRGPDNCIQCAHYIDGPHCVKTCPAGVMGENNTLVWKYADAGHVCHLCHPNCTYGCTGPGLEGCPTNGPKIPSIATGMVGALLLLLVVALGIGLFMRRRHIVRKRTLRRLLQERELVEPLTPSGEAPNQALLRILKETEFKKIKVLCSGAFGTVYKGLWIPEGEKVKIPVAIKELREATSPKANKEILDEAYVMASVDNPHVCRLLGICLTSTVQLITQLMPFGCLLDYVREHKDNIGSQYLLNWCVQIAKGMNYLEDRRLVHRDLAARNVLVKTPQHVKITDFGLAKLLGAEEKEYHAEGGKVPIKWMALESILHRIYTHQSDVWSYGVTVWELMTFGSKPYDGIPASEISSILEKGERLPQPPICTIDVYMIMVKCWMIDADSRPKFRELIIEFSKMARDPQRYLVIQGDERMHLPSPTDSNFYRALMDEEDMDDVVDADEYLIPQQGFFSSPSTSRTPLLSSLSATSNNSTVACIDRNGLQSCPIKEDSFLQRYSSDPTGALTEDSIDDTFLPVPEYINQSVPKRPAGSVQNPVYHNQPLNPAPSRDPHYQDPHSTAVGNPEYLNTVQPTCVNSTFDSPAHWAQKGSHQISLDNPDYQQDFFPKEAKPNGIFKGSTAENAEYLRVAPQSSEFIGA
# EPHA4 = EPHA4 (Homo sapiens, UniProt P54764); assay: KINOMEscan: EPHA4; type: binding; conditions: 1000 nM, read-out: Percent Control
# ERK2 = ERK2 (Homo sapiens, UniProt P28482); assay: KINOMEscan: ERK2; type: binding; conditions: 1000 nM, read-out: Percent Control
# ERK5 = ERK5 (Homo sapiens, UniProt Q13164); assay: KINOMEscan: ERK5; type: binding; conditions: 1000 nM, read-out: Percent Control
# ERN1 = ERN1 (Homo sapiens, UniProt O75460); assay: KINOMEscan: ERN1; type: binding; conditions: 1000 nM, read-out: Percent Control
# FES = FES (Homo sapiens, UniProt P07332); assay: KINOMEscan: FES; type: binding; conditions: 1000 nM, read-out: Percent Control
# FGFR3(G697C) = FGFR3(G697C) (Homo sapiens, UniProt P22607, G697C); assay: KINOMEscan: FGFR3(G697C); type: binding; conditions: 1000 nM, read-out: Percent Control
# FGFR4 = FGFR4 (Homo sapiens, UniProt P22455); assay: KINOMEscan: FGFR4; type: binding; conditions: 1000 nM, read-out: Percent Control
# FLT3 = FLT3 (Homo sapiens, UniProt P36888); assay: KINOMEscan: FLT3; type: binding; conditions: 1000 nM, read-out: Percent Control
# FYN = FYN (Homo sapiens, UniProt P06241); assay: KINOMEscan: FYN; type: binding; conditions: 1000 nM, read-out: Percent Control
# GRK7 = GRK7 (Homo sapiens, UniProt Q8WTQ7); assay: KINOMEscan: GRK7; type: binding; conditions: 1000 nM, read-out: Percent Control
# [5] = target: JAK2(JH1domain-catalytic) (Homo sapiens, UniProt O60674); assay: KINOMEscan: JAK2(JH1domain-catalytic); type: binding; conditions: 1000 nM, read-out: Percent Control
# Sequence of JAK2(JH1domain-catalytic) (O60674 849-1132 limits assumed): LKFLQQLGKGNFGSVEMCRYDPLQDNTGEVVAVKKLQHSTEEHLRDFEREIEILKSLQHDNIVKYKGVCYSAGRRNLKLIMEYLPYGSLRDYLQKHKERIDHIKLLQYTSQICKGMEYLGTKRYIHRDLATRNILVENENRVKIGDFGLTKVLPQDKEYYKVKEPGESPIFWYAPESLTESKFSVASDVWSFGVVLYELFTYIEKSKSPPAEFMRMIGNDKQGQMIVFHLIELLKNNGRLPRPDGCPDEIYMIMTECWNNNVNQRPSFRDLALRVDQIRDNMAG
# LTK = LTK (Homo sapiens, UniProt P29376); assay: KINOMEscan: LTK; type: binding; conditions: 1000 nM, read-out: Percent Control
# MARK2 = MARK2 (Homo sapiens, UniProt Q7KZI7); assay: KINOMEscan: MARK2; type: binding; conditions: 1000 nM, read-out: Percent Control
# Sequence of MARK2 (Q7KZI7 whole entry): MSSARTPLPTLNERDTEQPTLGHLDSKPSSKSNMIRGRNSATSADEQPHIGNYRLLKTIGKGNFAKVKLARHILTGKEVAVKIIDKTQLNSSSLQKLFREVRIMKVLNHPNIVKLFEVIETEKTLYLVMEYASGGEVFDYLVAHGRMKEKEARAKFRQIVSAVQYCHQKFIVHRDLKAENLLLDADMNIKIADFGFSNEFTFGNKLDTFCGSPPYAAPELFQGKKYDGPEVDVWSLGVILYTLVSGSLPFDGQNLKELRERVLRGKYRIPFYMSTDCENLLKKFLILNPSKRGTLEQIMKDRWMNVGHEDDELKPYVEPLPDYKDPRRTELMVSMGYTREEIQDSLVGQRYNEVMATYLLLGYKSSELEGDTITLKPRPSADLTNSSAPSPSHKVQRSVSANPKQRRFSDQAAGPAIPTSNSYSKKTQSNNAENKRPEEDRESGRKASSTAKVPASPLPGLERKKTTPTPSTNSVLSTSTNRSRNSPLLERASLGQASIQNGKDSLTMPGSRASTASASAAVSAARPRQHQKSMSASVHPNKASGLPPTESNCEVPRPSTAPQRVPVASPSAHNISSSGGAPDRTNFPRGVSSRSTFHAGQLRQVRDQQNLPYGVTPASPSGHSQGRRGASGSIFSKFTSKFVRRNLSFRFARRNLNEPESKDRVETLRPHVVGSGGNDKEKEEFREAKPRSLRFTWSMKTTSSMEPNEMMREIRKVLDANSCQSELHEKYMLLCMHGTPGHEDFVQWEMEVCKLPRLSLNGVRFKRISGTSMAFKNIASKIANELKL
# MERTK = MERTK (Homo sapiens, UniProt Q12866); assay: KINOMEscan: MERTK; type: binding; conditions: 1000 nM, read-out: Percent Control
# MLK1 = MLK1 (Homo sapiens, UniProt P80192); assay: KINOMEscan: MLK1; type: binding; conditions: 1000 nM, read-out: Percent Control
# MRCKA = MRCKA (Homo sapiens, UniProt Q5VT25); assay: KINOMEscan: MRCKA; type: binding; conditions: 1000 nM, read-out: Percent Control
# MST4 = MST4 (Homo sapiens, UniProt Q9P289); assay: KINOMEscan: MST4; type: binding; conditions: 1000 nM, read-out: Percent Control
smiles,measurement,setting,value
COc1cc(F)ccc1-c1cc(Nc2cc(CS(C)(=N)=O)ccn2)ncc1F (centres unmarked) [VIP152],cytotoxicity,[1],significant levels of cytotoxicity
same,inhibition at 10 µM,Adrenergic α1A,34%
same,inhibition at 10 µM,Adrenergic α1D,19%
same,inhibition at 10 µM,Adrenergic β2,3%
same,inhibition at 10 µM,Melatonin MT1,6%
same,inhibition at 10 µM,Muscarinic M1,-10%
same,% Inh.,Purinergic P2Y,8%
same,inhibition at 10 µM,[2],37%
same,off-target activity across the panel,[3],No significant (>50%) interference
same,remaining binding at 0.1 µM,PKNB(M.tuberculosis),100%
same,remaining binding at 0.1 µM,[4],100%
same,remaining binding at 0.1 µM,SGK,100%
same,remaining binding at 0.1 µM,SGK3,100%
same,remaining binding at 0.1 µM,TNK1,100%
same,remaining binding at 0.1 µM,TNNI3K,100%
same,remaining binding at 0.1 µM,VPS34,94%
same,remaining binding at 1 µM,BTK,100%
same,remaining binding at 1 µM,CAMK2B,65%
same,remaining binding at 1 µM,CAMK2D,69%
same,remaining binding at 1 µM,CLK2,82%
same,remaining binding at 1 µM,CSF1R-autoinhibited,73%
same,remaining binding at 1 µM,DMPK,62%
same,remaining binding at 1 µM,EGFR,81%
same,remaining binding at 1 µM,EGFR(G719C),97%
same,remaining binding at 1 µM,EPHA4,94%
same,remaining binding at 1 µM,ERK2,99%
same,remaining binding at 1 µM,ERK5,95%
same,remaining binding at 1 µM,ERN1,86%
same,remaining binding at 1 µM,FES,87%
same,remaining binding at 1 µM,FGFR3(G697C),63%
same,remaining binding at 1 µM,FGFR4,76%
same,remaining binding at 1 µM,FLT3,38%
same,remaining binding at 1 µM,FYN,91%
same,remaining binding at 1 µM,GRK7,87%
same,remaining binding at 1 µM,[5],66%
same,remaining binding at 1 µM,LTK,100%
same,remaining binding at 1 µM,MARK2,81%
same,remaining binding at 1 µM,MERTK,58%
same,remaining binding at 1 µM,MLK1,76%
same,remaining binding at 1 µM,MRCKA,82%
same,remaining binding at 1 µM,MST4,89%
